According to US20100260785A1, “SARP-1 Fusion Proteins and Uses Thereof” (priority 2007, published 2010):
Entries after “also recorded” stand apart in the source; their conditions may differ.

Assays:
[1] = tested on: human hepatic stellate cells; assay: Cell proliferation assay (cell number/well) of PDGF-BB-stimulated primary human hepatic stellate cells; format: cell-based
Protocol: (§1) Human hepatic stellate cells (HSCs) were isolated from wedge sections of normal human liver unsuitable for transplantation. Liver tissue was digested with collagenase/pronase. HSC were separated from other liver nonparenchymal cells by ultracentrifugation over gradients of Stractan (Cellsep isotonic solution; Larex Inc., St. Paul, Minn.). HSC were cultured on plastic culture dishes in Iscove's modified Dulbecco's medium supplemented with 0.6 U/mL of insulin, 2.0 mmol/L of glutamine, 0.1 mmol/L of nonessential amino acids, 1.0 mmol/L of sodium pyruvate, antibiotic-antimycotic solution (all provided by Gibco Laboratories, Grand Island, N.Y.), and 20% fetal bovine serum (Imperial Laboratories, Andover, UK). All experiments were performed in triplicate and results are expressed as MEAN+SD. Statistical significance was evaluated by Student t test.
(§2) For this group of experiments the stimulus of choice was human recombinant PDGF-BB at the standard dose of 10 ng/ml. Canrenone (10 μM), whose inhibitory effect has been previously shown in the same cell preparations (Caligiuri et al., 2003), was used as a positive control of inhibition.
HSC were plated in 12 well dishes at 30% confluence in Iscove's modified Dulbecco's medium supplemented with 0.6 U/mL insulin, 2.0 mmol/L of glutamine, 0.1 mmol/L nonessential amino acids, 1.0 mmol/L of sodium pyruvate, antibiotic-antimycotic solution (all from Gibco Laboratories, Grand Island, N.Y.), and 20% fetal bovine serum (Imperial Laboratories, Andover, UK). After 24 hours the HSC were incubated with serum-free medium containing PDGF-BB to induce activation at a concentration of 10 ng/ml with or without SARP-1(Fz)delta7-Fc at a concentration of 10, 1 and 0.1 μg/ml. HSC were harvested and cell number/well were determined after 2, 4, and 6 days of culture. At each time point fresh medium and experimental conditions were added at the remaining wells.

[2] = tested on: lung fibroblasts of patients with interstitial pulmonary fibrosis (IPF); assay: BrdU incorporation (cell proliferation ELISA) in primary lung fibroblasts from IPF patients; format: cell-based, human; conditions: for PDGF-increased BrdU incorporation: PDGF 10 ng/ml
Protocol: To evaluate the effect of SARP-1(Fz)delta7-Fc, lung fibroblasts were obtained from lung explants of patients with interstitial pulmonary fibrosis (IPF) (N=3) and controls (N=3). Fibroblasts were cultured in 96 well cell culture plates in DMEM medium with high glucose (25 mM) and 10% Fetal Clone II (Hyclone) until they reached approximately 50% confluence. Fetal Clone II is an alternative to fetal bovine serum (FBS). Then the cells were cultured for 48 hours with Fetal Clone II at a concentration of 1%. […] Bromodeoxyuridine (5-bromo-2-deoxyuridine, BrdU) was added 24 hours later at a final concentration of 100 μM. After 24 hours of incubation, cells were fixed and lysed. Cell proliferation was evaluated with the cell proliferation ELISA BrdU colorimetric assay (Roche Diagnostics, Meylan, France) ELISA. The experiments were performed in the basal condition (without PDGF) and in the presence of PDGF (10 ng/ml), All experimental conditions were tested in triplicates and the mean value was calculated. For each experimental condition, the incorporation of BrdU was expressed as a percentage of the incorporation observed in the control condition in the same culture.

[3] = tested on: human hepatic stellate cells; assay: Incorporation of 3H-thymidine into DNA of PDGF-BB-stimulated primary human hepatic stellate cells; format: cell-based; conditions: PDGF-BB 10 ng/ml; 10, 1 and 0.1 μg/ml
Protocol: as §1, §2
HSC were plated in 24 well plastic dishes and grown to confluence in complete cell culture medium containing 20% of fetal bovine serum (FBS). HSC were then deprived of serum for 48 hours and stimulated with PDGF-BB for additional 24 hours. […]

[4] = tested on: B16F1 (mouse melanoma) cell line; assay: MTT cell proliferation assay, B16F1; format: cell-based
Protocol: (§3) The cell line B16F1 (mouse melanoma) were cultivated in DMEM+10% serum and seeded at 5000 cells/well in a total volume of 50 μl. The SW480 and SW620 (human colon carcinoma) cell lines were cultivated in L15 medium+10% fetal bovine serum and seeded at 20,000 cells per well in a total volume of 50 μl. SARP-1(Fz)delta7-Fc was added immediately at a concentration of 1, 3 or 6 μM.
(§4) Cell proliferation assay was evaluated by reduction of 3-(4,5-dimethylthiazol-2-yl)-2,5-diphenyltetrazolium bromide (MTT) after 24, 48, 72 and 96 hours of culture. For the test of cell proliferation, 5 μl and 10 μl of MTT solution were added to the cultures of B16F1, SW480 and SW620 cells, respectively. After the incubation period, cells were lysed in 200 μl DMSO, and optic density was determined at 570 and 630 nm. The positive control for inhibition of cell proliferation was DKK1-Fc used at a concentration of 1 μM during the experiment.

[5] = tested on: unilateral ureter ligation-induced renal fibrosis; assay: Unilateral ureter obstruction (UUO) murine model of renal fibrosis; format: in vivo, C57BL/6 mice; conditions: subcutaneous, 1.5 mg/ml, once a day, 21 days of treatment; p<0.05
Protocol: The in vivo activity of SARP-1(Fz)[…]-Fc was tested in an experimental model of obstructive nephropathy, which is unilateral ureter ligation-induced renal fibrosis (Vielhauer et al., 2001). Female inbred C57BL/6 mice weighing 20 to 26 g were kept in macrolone type III cages under a 12 h light/dark cycle. Water and standard chow were available ad libitum. Under general ether anesthesia, a low midline abdominal incision was performed and the ligation of the left distal ureter was made with a 2/0 Mersilene suture, resulting in a unilateral ureter obstruction (UUO). Unobstructed contralateral kidneys served as controls. […] The first dose was administered immediately after UUO once a day for 21 days Mice were killed at 7 and 21 days after UUO by cervical dislocation under general anesthesia with inhaled ether. From each mouse cranial kidney halves were used for histological assessment. Ligated and contralateral kidney tissue was fixed for 24 hours at room temperature in 4% neutral buffered formalin and then embedded in paraffin. For quantitative analysis, 4 μm horizontal sections were cut. Every fifth of fifteen subsequent sections, chosen by systematic uniformly random sampling, was used for analysis. […]

[6] = tested on: SW480 (human colon carcinoma) cell line; assay: MTT cell proliferation assay, SW480; format: cell-based; conditions: 1, 3 or 6 μM; MTT after 24, 48, 72 and 96 hours
Protocol: as §3, §4

[7] = tested on: SW620 (human colon carcinoma) cell line; assay: MTT cell proliferation assay, SW620; format: cell-based; conditions: 1, 3 or 6 μM; MTT after 24, 48, 72 and 96 hours
Protocol: as §3, §4

[8] = tested on: murine Wnt1 and human Wnt2; assay: Wnt antagonistic activity, LEF-luciferase reporter assay with mixed Inducer and Reporter 293T cells; format: cell-based
Protocol: 293T cells expressing murine Wnt1 and human Wnt2 (Inducer Cells) and 293T cells expressing Luciferase under the control of LEF-site-linked promoter (Reporter Cells) were mixed at an equal ratio and seeded in 100 μl medium per well in a 96-well microtiter plate. The Inducer Cells by overexpressing Wnt1 and Wnt2 at its surface were able to induce an activation of the Wnt signaling pathway triggered by the interaction of the Wnt proteins with its receptor at the cell membrane of the Reporter Cells. The Reporter Cells in response to Wnt pathway activation expressed luciferase by the activation of Wnt responsive genes such as LEF.
The mixture was composed of about 10,000 Inducer Cells and 10,000 Reporter Cells per well. SARP-1(Fz)delta7-Fc was added to the culture medium at different concentrations (from 300 to 5 μg/ml). After 48 hours of incubation, the medium was discarded, and 40 μl lysis buffer were added to the cells. After 15 minutes of lysis on an orbital shaker at 4° C., the samples were submitted to two cycles of freezing and thawing followed by rigid shaking using a vortex (for 2 minutes) and sedimentation by centrifugation at 2000 rpm in V-shape microtiter plates.
Luciferase activities were normalized by total protein content in the lysate. Protein quantification was performed on 5 μl cell lysate using the BCA kit (Pierce) as known in the art. To measure the luciferase activity, 10 μl of cell lysate each was transferred into a 96-well microtiter plate. 15 μl of luciferin reagent was added to the sample and the quantification of the luminescence was counted during 10 seconds.
The results were expressed in percentage of Wnt activation. Thus, the maximal luciferase activity obtained with the mixture of Inducer and Reporter Cells corresponded to 100%.

IC50 ([8]; 48 hours incubation, 300 to 5 μg/ml, read-out: IC50, reduction of luciferase activity): 750 nM
EC50 ([8]; FIG. 3 legend, read-out: EC50, inhibition of Wnt 1 and Wnt 2 activation in a reporter cellular assay): 750 nM
Substance: SARP-1(Fz)delta7-Fc: Fusion of mature SARP-1 without Netrin domain, lacking first seven N-terminal amino acids, with human IgG1 Fc region
inhibitory effect on PDGF-induced hepatic stellate cells ([1]; 10.0 μg/ml after 2, 4 and 6 days of culture): more prominent
PDGF-induced cell growth of hepatic stellate cells ([1]; 10.0 μg/ml for 2, 4 or 6, PDGF-BB 10 ng/ml): significantly decreased
inhibitory effect on PDGF-induced hepatic stellate cells ([1]; dose of 1 μg/ml after 2 days of culture): statistically significant
PDGF-increased BrdU incorporation ([2]; 1 μg/ml): no effect
PDGF-increased BrdU incorporation ([2]; 10 μg/ml): no effect
PDGF-increased BrdU incorporation ([2]; 100 μg/ml): profoundly inhibited
PDGF-increased BrdU incorporation ([2]; concentration not given): reduced BrdU incorporation
BrdU incorporation, basal condition ([2]; without PDGF, in b213 at the highest dose tested): reduced BrdU incorporation
PDGF-induced DNA synthesis in primary human hepatic stellate cells cultures [3]: reduced significantly
level of inhibition of B16F1 proliferation compared with positive control DKK1-Fc (1 μM) ([4]; 6 μM): comparable to the one obtained by using the positive control
inhibition of proliferation of B16F1 melanoma cell line ([4]; 1 to 6 μM, MTT after 24, 48, 72 and 96 hours): significant inhibition; also recorded: inhibited cell proliferation
alfa smooth muscle actin (α-SMA) accumulation, myofibroblast marker, histological analysis [5]: reduction; also recorded: decreased
renal fibrosis by morphometric analysis of the changes in the tubular interstitium [5]: reduction of renal fibrosis
inhibition of cell proliferation of SW480 [6]: able to inhibit the cell proliferation; also recorded: inhibited cell proliferation
inhibition of cell proliferation of SW620 [7]: able to inhibit the cell proliferation; also recorded: inhibited cell proliferation
Emax reached, inhibition of Wnt 1 and Wnt 2 activation ([8]; FIG. 3 legend): 80%
maximum inhibition of luciferase activity ([8]; at concentration from 150 to 300 μg/ml): 80%
